Columns and labels:
[1] = Dissociation of manganese from the chelate in human serum (SEC with ICP-MS); format: in vitro ADME; details: for Percent dechelation in human serum: 37° C., protein bound manganese
Description: (§1) Stability of Mn Chelate-5 stereoisomers in human serum was assessed in vitro by monitoring transfer of Mn from the chelate to blood proteins by a method employing size exclusion chromatography combined with online detection of manganese containing species by ICP-MS.
The following method was used for measurement of dissociation of manganese from the manganese chelate in human serum.
To human serum obtained from clotted blood (Sigma-Aldrich, 1900 μL) was added an aqueous solution of the manganese chelate (2 mM, 100 μL). The mixture was incubated at 37° C. At specific time points aliquots of 200 μL of test sample were mixed with saline (400 μL) and analysed by size exclusion chromatography (metal-free HPLC equipped with a column with separation range 5000-500000 Dalton) combined with online detection of manganese containing species by ICP-SF-MS. Percent dechelation was measured as area percent of the high molecular weight (protein) fraction. At regular intervals EDTA solution was run through the system to ensure low levels of background metal ions. Human serum was incubated with Mn(II)acetate and injected to identify the position of Mn-binding components in the high molecular weight region of the chromatogram.
Four different stereoisomers of Mn Chelate-5 (RR, SS, SR and RS) were analysed in this assay.

[2] = Mn-54 biodistribution study in rats; format: in vivo, Sprague-Dawley rats; details: rat, 7 d post injection; for % ID ± standard deviation, Brain: 0.62 mmol Mn/kg with ~30 μCi 54Mn labeled chelate, n = 4
Description: In vivo stability of the different isomer pools was assessed via a ^54Mn radioactive biodistribution as Mn released in vivo is known to be retained in brain, bone and liver. The amount of Mn released in vivo was assessed for Mn Chelate-5 synthesized without stereochemical control, a 1:1 mix of (R,R)-Mn Chelate-5 and (S,S)-Mn Chelate 5 isomers, and (R,S)-Mn Chelate-5 isomer pool B using ^54Mn labeled material added to non-radiolabeled material. […] Rats were dosed with 0.62 mmol Mn Chelate-5/kg containing ˜30 μCi ^54Mn Chelate-5. The animals were sacrificed at 7 d post injection, organs of interest were collected, and the ^54Mn remaining in the organs was measured using a gamma counter. FIG. 4 is a plot showing % ID (injected dose)/organ 7 d post injection of a 0.62 mmol Mn Chelate-5/kg dose containing ˜[…] ^54Mn Chelate-5. Bars containing hashed lines represent % ID/organ at or below the limit of detection for the study. The results of statistical comparison of the % ID for each organ are summarized as p-values using either a one-way ANOVA Games-Howell comparison or a 2-way t-test as appropriate are shown for each organ.
Method for preparation of Mn-54 labeled chelate for biodistribution studies. To a 3 mL glass vial fitted with a magnetic stir bar was added the manganese containing chelate (1 mg) and 1.0 M ammonium formate, pH=4 (0.5 mL). ^54MnCl2 in 1.0 M HCl (˜500 μCi) was then added and the resulting solution was heated at 40° C. for 16 h. The resulting solution was purified via preparative HPLC to remove unchelated Mn. The radioactive fraction was collected and evaporated to dryness in vacuo. The radioactive residue was taken up in water containing non-radioactive Mn chelate (0.310 M) such that ˜30 μCi of radioactivity was formulated in a dose of 0.620 mmol Mn/kg with an injection volume of 2 mL/kg.
General method for Mn-54 biodistribution studies. […] 7 days post injection, the animals were sacrificed by CO2 immersion and organs and tissues of interest were removed and assayed for radioactivity using a Wizard 2480 gamma counter (Table 2).

[3] = r1 and r2 relaxivities (Brüker mq60 relaxometer); format: physicochemical; details: in human serum at 60 MHz and 37° C.
Text: General method for measurement of r1 and r2 relaxivities. […] […] Linear fits (R^2>0.99 in all cases) of 1/T1 or 1/T2 as a function of Mn concentration gave r1 or r2 values respectively.

[4] = Trans-metalation with Zn (HPLC, % Mn chelate remaining); format: physicochemical; details: 2 mM chelate, 200 mM ZnCl2 in 15 mM ammonium formate, pH=4, 40° C.
Description: as §1
Method for assessing trans-metalation with Zn. Mn chelates were dissolved in aqueous solutions containing 200 mM ZnCl2 and 15 mM ammonium formate at either pH=4 to give a Mn chelate concentration of approx. 2 mM. The resulting solutions were incubated at 40° C. with mixing and aliquots were periodically analyzed by HPLC. The percent Mn containing chelate remaining in the solution was measured by integration at 265 nm.

| SMILES | Percent dechelation in human serum ([1]; incubation time 3 h) [%] | Percent dechelation in human serum ([1]; incubation time 24 h) [%] | Percent dechelation in human serum ([1]; incubation time 49 h) [%] | % ID ± standard deviation, Brain [2] [% ID] | r1 relaxivity [3] [mM⁻¹ s⁻¹] | Mn remaining in vivo in brain and bone vs 1:1 (S,S)/(R,R) mixture or Mn Chelate-5 without stereochemical control [2] | Rate of transmetallation with Zn (among Mn Chelate-5 stereoisomers) [4] | Stability in human serum (percent dechelation curves, comparison of isomers) ([1]; 2 days total incubation at 37 °C) |
| --- | --- | --- | --- | --- | --- | --- | --- | --- |
| CN1CCN2Cc3cccc(n3)CN(CC1)[C@H](CCC(=O)NC[C@H](O)[C@@H](O)[C@H](O)[C@H](O)CO)C(=O)[O][Mn][O]C(=O)[C@H]2CCC(=O)NC[C@H](O)[C@@H](O)[C@H](O)[C@H](O)CO [(R,R)-Mn Chelate-5] | 0.6 | 2.7 | 3.6 |  |  |  |  |  |
| CN1CCN2Cc3cccc(n3)CN(CC1)C(CCC(=O)NC[C@H](O)[C@@H](O)[C@H](O)[C@H](O)CO)C(=O)[O][Mn][O]C(=O)C2CCC(=O)NC[C@H](O)[C@@H](O)[C@H](O)[C@H](O)CO (stereo partly shown) [Mn Chelate-5] |  |  |  | 0.005 ± 0.0004 | 6.0 |  |  |  |
| CN1CCN2Cc3cccc(n3)CN(CC1)[C@@H](CCC(=O)NC[C@H](O)[C@@H](O)[C@H](O)[C@H](O)CO)C(=O)[O][Mn][O]C(=O)[C@H]2CCC(=O)NC[C@H](O)[C@@H](O)[C@H](O)[C@H](O)CO [(R,S)-Mn Chelate-5] | 0.04 | 0.11 | 0.16 | 0.002 ± 0.0004 | 6.0 | significantly less Mn remaining in vivo | significantly slower rate of transmetallation | most stable |
| CN1CCN2Cc3cccc(n3)CN(CC1)[C@@H](CCC(=O)NC[C@H](O)[C@@H](O)[C@H](O)[C@H](O)CO)C(=O)[O][Mn][O]C(=O)[C@@H]2CCC(=O)NC[C@H](O)[C@@H](O)[C@H](O)[C@H](O)CO [(S,S)-Mn Chelate-5] | 0.3 | 1.6 | 2.4 |  |  |  |  |  |

Source: patent publication US20220315616A1, “MANGANESE CHELATE ISOMERS” (GE Healthcare AS, priority 2019, published 2022)
